Experimental data published in patent US9944646B2, “Bicyclic azaheterocyclobenzylamines as PI3K inhibitors” (Incyte Corporation, priority 2012, dated 2018).

These compounds were tested against PI3Kδ (Homo sapiens (Human), UniProt O00329) (assay: PI3K Enzyme Assay (Example A2), [γ-33P]ATP filter plate).
Type: biochemical
Description: Example A2: PI3K Enzyme Assay
Lipid kinase substrate, phosphoinositol-4,5-bisphosphate (PIP2), are purchased from Echelon Biosciences (Salt Lake City, Utah). PI3K isoforms α, β, δ and γ are purchased from Millipore (Bedford, Mass.). ATP, MgCl2, DTT, EDTA, MOPS and CHAPS are purchased from Sigma-Aldrich (St. Louis, Mo.).
The kinase reaction are conducted in clear-bottom 96-well plate from Thermo Fisher Scientific in a final volume of 24 μL. Inhibitors are first diluted serially in DMSO and added to the plate wells before the addition of other reaction components. The final concentration of DMSO in the assay is 0.5%. The PI3K assays are carried out at room temperature in 20 mM MOPS, pH 6.7, 10 mM MgCl2, 5 mM DTT and CHAPS 0.03%. The reaction mixture is prepared containing 50 µM PIP2, kinase and varying concentration of inhibitors. Reactions are initiated by the addition of ATP containing 2.2 μCi [γ-^33P]ATP to a final concentration of 1000 μM. The final concentration of PI3K isoforms α, β, δ and γ in the assay were 1.3, 9.4, 2.9 and 10.8 nM, respectively. Reactions are incubated for 180 minutes and terminated by the addition of 100 μL of 1 M potassium phosphate pH 8.0, 30 mM EDTA quench buffer. A 100 μL aliquot of the reaction solution are then transferred to 96-well Millipore MultiScreen IP […] PVDF filter plate (The filter plate is prewetted with 200 μL 100% ethanol, distilled water, and 1 M potassium phosphate pH 8.0, respectively). The filter plate is aspirated on a Millipore Manifold under vacuum and washed with 18×200 μL wash buffer containing 1 M potassium phosphate pH 8.0 and 1 mM ATP. After drying by aspiration and blotting, the plate is air dried in an incubator at 37° C. overnight. Packard TopCount adapter (Millipore) is then attached to the plate followed with addition of 120 μL Microscint 20 scintillation cocktail (Perkin Elmer) in each well. After the plate sealing, the radioactivity of the product is determined by scintillation counting on Topcount (Perkin-Elmer). IC50 determination is performed by fitting the curve of percent control activity versus the log of the inhibitor concentration using the GraphPad Prism 3.0 software.

Sequence of PI3Kδ (O00329 whole entry): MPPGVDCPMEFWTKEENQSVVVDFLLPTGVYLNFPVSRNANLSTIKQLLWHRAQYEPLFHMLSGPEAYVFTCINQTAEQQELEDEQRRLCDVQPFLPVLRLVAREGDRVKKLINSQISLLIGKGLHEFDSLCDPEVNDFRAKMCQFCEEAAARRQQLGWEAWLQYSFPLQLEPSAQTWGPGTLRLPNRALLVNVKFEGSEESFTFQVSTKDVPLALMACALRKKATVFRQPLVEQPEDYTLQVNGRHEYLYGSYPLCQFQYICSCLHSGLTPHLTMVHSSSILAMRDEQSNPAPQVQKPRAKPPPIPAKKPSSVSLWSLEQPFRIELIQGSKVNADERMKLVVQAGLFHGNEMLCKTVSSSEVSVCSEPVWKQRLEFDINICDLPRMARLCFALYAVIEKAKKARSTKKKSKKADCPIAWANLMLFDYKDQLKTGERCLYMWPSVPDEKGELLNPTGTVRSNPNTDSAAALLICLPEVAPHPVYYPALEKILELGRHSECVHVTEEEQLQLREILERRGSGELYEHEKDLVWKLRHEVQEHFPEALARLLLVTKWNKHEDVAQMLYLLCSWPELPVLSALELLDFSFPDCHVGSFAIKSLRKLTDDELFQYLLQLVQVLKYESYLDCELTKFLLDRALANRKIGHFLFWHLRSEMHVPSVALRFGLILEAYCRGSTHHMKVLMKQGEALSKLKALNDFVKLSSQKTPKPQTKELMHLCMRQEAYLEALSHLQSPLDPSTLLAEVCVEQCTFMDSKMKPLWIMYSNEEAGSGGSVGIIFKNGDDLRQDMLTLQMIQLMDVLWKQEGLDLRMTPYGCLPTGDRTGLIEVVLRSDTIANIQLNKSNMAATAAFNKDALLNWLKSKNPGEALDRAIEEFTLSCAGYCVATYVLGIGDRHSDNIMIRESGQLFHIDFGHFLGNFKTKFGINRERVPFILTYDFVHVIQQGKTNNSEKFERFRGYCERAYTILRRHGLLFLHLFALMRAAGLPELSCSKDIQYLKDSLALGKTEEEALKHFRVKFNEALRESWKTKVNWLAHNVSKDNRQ
Sequence of PI3Kδ (P27986 whole entry partner): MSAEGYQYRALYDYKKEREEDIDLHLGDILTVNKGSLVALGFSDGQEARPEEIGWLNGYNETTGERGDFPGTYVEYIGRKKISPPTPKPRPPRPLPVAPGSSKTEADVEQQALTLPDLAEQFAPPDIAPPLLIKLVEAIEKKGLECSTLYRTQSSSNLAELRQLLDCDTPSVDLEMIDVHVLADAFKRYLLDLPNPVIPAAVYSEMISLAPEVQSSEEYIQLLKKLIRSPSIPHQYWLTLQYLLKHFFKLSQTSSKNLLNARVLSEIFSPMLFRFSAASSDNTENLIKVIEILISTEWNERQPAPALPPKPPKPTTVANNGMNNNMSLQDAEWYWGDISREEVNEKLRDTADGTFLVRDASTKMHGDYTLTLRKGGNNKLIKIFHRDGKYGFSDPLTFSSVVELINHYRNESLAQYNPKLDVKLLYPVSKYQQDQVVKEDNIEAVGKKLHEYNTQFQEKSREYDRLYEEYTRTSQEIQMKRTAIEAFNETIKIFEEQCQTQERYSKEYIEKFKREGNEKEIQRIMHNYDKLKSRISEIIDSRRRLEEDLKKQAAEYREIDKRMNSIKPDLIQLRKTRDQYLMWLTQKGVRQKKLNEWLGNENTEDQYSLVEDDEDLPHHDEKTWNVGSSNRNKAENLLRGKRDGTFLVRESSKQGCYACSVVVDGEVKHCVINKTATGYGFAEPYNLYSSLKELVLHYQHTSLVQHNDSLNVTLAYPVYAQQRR

Q: CCC1CN(CCO)Cc2c(C#N)c(Cl)cc(C(C)n3nc(C)c4c(N)ncnc43)c2O1 (single isomer, unassigned) [Example 69, 9-[1-(4-Amino-3-methyl-1H-pyrazolo[3,4-d]pyrimidin-1-yl)ethyl]-7-chloro-2-ethyl-4-(2-hydroxyethyl)-2,3,4,5-tetrahydro-1,4-benzoxazepine-6-carbonitrile] was tested. Which IC50 did it give?
A: The IC50 was ≤ 100 nM.

Q: How did the IC50 turn out when CCC1CN(CCO)Cc2c(C#N)c(Cl)cc(C(C)n3nc(C)c4c(N)ncnc43)c2O1 (single isomer, unassigned) [Example 70, 9-[1-(4-Amino-3-methyl-1H-pyrazolo[3,4-d]pyrimidin-1-yl)ethyl]-7-chloro-2-ethyl-4-(2-hydroxyethyl)-2,3,4,5-tetrahydro-1,4-benzoxazepine-6-carbonitrile] was run?
A: Its IC50 is ≤ 100 nM.

Q: How did the IC50 turn out when CC(=O)N1CC(N2Cc3c(F)c(Cl)cc(C(C)n4nc(C)c5c(N)ncnc54)c3OC(C)C2=O)C1 (single isomer, unassigned) [Example 72, 4-(1-Acetylazetidin-3-yl)-9-[1-(4-amino-3-methyl-1H-pyrazolo[3,4-d]pyrimidin-1-yl)ethyl]-7-chloro-6-fluoro-2-methyl-4,5-dihydro-1,4-benzoxazepin-3(2H)-one] was run?
A: Its IC50 is 100 to 500 nM.

Q: Cc1nn(C(C)c2cc(Cl)c(F)c3c2OC(C)CN(C[C@@H](C)O)C3)c2ncnc(N)c12 (single isomer, unassigned) [Example 77] was tested. Which IC50 did it give?
A: Its IC50 is ≤ 100 nM.

Q: Cc1nn(C(C)c2cc(Cl)c(F)c3c2OC(C)CN(C[C@@H](C)O)C3)c2ncnc(N)c12 (single isomer, unassigned) [Example 78] was tested. Which IC50 did it give?
A: The IC50 was ≤ 100 nM.

Q: With COC(=O)N1CC(N2Cc3c(F)c(Cl)cc(C(C)n4nc(C)c5c(N)ncnc54)c3OC(C)C2)C1 (single isomer, unassigned) [Example 80, methyl 3-[9-[1-(4-amino-3-methyl-1H-pyrazolo[3,4-d]pyrimidin-1-yl)ethyl]-7-chloro-6-fluoro-2-methyl-2,3-dihydro-1,4-benzoxazepin-4(5H)-yl]azetidine-1-carboxylate] as the compound, how does the IC50 read?
A: Its IC50 is ≤ 100 nM.

Q: How did the IC50 turn out when Cc1nn(C(C)c2cc(Cl)c(F)c3c2OC(C)CN(C2CN(S(N)(=O)=O)C2)C3)c2ncnc(N)c12 (single isomer, unassigned) [Example 81, 3-[9-[1-(4-amino-3-methyl-1H-pyrazolo[3,4-d]pyrimidin-1-yl)ethyl]-7-chloro-6-fluoro-2-methyl-2,3-dihydro-1,4-benzoxazepin-4(5H)-yl]azetidine-1-sulfonamide] was run?
A: Its IC50 is ≤ 100 nM.

Q: Cc1nn(C(C)c2cc(Cl)c(F)c3c2OC(C)CN(C2CN(C(N)=O)C2)C3)c2ncnc(N)c12 (single isomer, unassigned) [Example 83, 3-[9-[1-(4-amino-3-methyl-1H-pyrazolo[3,4-d]pyrimidin-1-yl)ethyl]-7-chloro-6-fluoro-2-methyl-2,3-dihydro-1,4-benzoxazepin-4(5H)-yl]azetidine-1-carboxamide] was tested. Which IC50 did it give?
A: Its IC50 is ≤ 100 nM.

Q: With Cc1nn(C(C)c2cc(Cl)c(F)c3c2OC(C)CN(C2CN(C(N)=O)C2)C3)c2ncnc(N)c12 (single isomer, unassigned) [Example 84, 3-[9-[1-(4-amino-3-methyl-1H-pyrazolo[3,4-d]pyrimidin-1-yl)ethyl]-7-chloro-6-fluoro-2-methyl-2,3-dihydro-1,4-benzoxazepin-4(5H)-yl]azetidine-1-carboxamide] as the compound, how does the IC50 read?
A: The IC50 was ≤ 100 nM.

Q: For Cc1nn(C(C)c2cc(Cl)c(F)c3c2O[C@@H](C)CN(C2CN(CC(N)=O)C2)C3)c2ncnc(N)c12 (single isomer, unassigned) [Example 87], which IC50 is on record?
A: The IC50 was 100 to 500 nM.

Q: Cc1nn(C(C)c2cc(Cl)c(F)c3c2O[C@@H](C)CN(C2CN(CC(N)=O)C2)C3)c2ncnc(N)c12 (single isomer, unassigned) [Example 88] was tested. Which IC50 did it give?
A: The IC50 was ≤ 100 nM.

Q: Which IC50 does the source give for Cc1nn(C(C)c2cc(Cl)c(C#N)c3c2OC(C)CN(C2CN(S(C)(=O)=O)C2)C3)c2ncnc(N)c12 (single isomer, unassigned) [Example 93, 9-[1-(4-amino-3-methyl-1H-pyrazolo[3,4-d]pyrimidin-1-yl)ethyl]-7-chloro-2-methyl-4-[1-(methylsulfonyl)azetidin-3-yl]-2,3,4,5-tetrahydro-1,4-benzoxazepine-6-carbonitrile] here?
A: Its IC50 is ≤ 100 nM.

Q: How did the IC50 turn out when Cc1nn(C(C)c2cc(Cl)c(C#N)c3c2OC(C)CN(C2CN(S(C)(=O)=O)C2)C3)c2ncnc(N)c12 (single isomer, unassigned) [Example 94, 9-[1-(4-amino-3-methyl-1H-pyrazolo[3,4-d]pyrimidin-1-yl)ethyl]-7-chloro-2-methyl-4-[1-(methylsulfonyl)azetidin-3-yl]-2,3,4,5-tetrahydro-1,4-benzoxazepine-6-carbonitrile] was run?
A: The IC50 was ≤ 100 nM.

Q: How did the IC50 turn out when CCC(=O)N1CC(N2Cc3c(C#N)c(Cl)cc(C(C)n4nc(C)c5c(N)ncnc54)c3OC(C)C2)C1 (single isomer, unassigned) [Example 95, 9-[1-(4-amino-3-methyl-1H-pyrazolo[3,4-d]pyrimidin-1-yl)ethyl]-7-chloro-2-methyl-4-(1-propionylazetidin-3-yl)-2,3,4,5-tetrahydro-1,4-benzoxazepine-6-carbonitrile] was run?
A: Its IC50 is ≤ 100 nM.

Q: CCNC(=O)N1CC(N2Cc3c(C#N)c(Cl)cc(C(C)n4nc(C)c5c(N)ncnc54)c3OC(C)C2)C1 (single isomer, unassigned) [Example 97, 3-[9-[1-(4-amino-3-methyl-1H-pyrazolo[3,4-d]pyrimidin-1-yl)ethyl]-7-chloro-6-cyano-2-methyl-2,3-dihydro-1,4-benzoxazepin-4(5H)-yl]-N-ethylazetidine-1-carboxamide] was tested. Which IC50 did it give?
A: Its IC50 is ≤ 100 nM.

Q: Which IC50 does the source give for CCNC(=O)N1CC(N2Cc3c(C#N)c(Cl)cc(C(C)n4nc(C)c5c(N)ncnc54)c3OC(C)C2)C1 (single isomer, unassigned) [Example 98, 3-[9-[1-(4-amino-3-methyl-1H-pyrazolo[3,4-d]pyrimidin-1-yl)ethyl]-7-chloro-6-cyano-2-methyl-2,3-dihydro-1,4-benzoxazepin-4(5H)-yl]-N-ethylazetidine-1-carboxamide] here?
A: The IC50 was ≤ 100 nM.

Q: With CCOC(=O)N1CC(N2Cc3c(C#N)c(Cl)cc(C(C)n4nc(C)c5c(N)ncnc54)c3OC(C)C2)C1 (single isomer, unassigned) [Example 99, ethyl 3-[9-[1-(4-amino-3-methyl-1H-pyrazolo[3,4-d]pyrimidin-1-yl)ethyl]-7-chloro-6-cyano-2-methyl-2,3-dihydro-1,4-benzoxazepin-4(5H)-yl]azetidine-1-carboxylate] as the compound, how does the IC50 read?
A: Its IC50 is ≤ 100 nM.

Q: How did the IC50 turn out when CCOC(=O)N1CC(N2Cc3c(C#N)c(Cl)cc(C(C)n4nc(C)c5c(N)ncnc54)c3OC(C)C2)C1 (single isomer, unassigned) [Example 100, ethyl 3-[9-[1-(4-amino-3-methyl-1H-pyrazolo[3,4-d]pyrimidin-1-yl)ethyl]-7-chloro-6-cyano-2-methyl-2,3-dihydro-1,4-benzoxazepin-4(5H)-yl]azetidine-1-carboxylate] was run?
A: The IC50 was ≤ 100 nM.

Q: For Cc1nn(C(C)c2cc(Cl)c(C#N)c3c2OC(C)CN(C2CN(C(=O)NC(C)C)C2)C3)c2ncnc(N)c12 (single isomer, unassigned) [Example 101, 3-[9-[1-(4-amino-3-methyl-1H-pyrazolo[3,4-d]pyrimidin-1-yl)ethyl]-7-chloro-6-cyano-2-methyl-2,3-dihydro-1,4-benzoxazepin-4(5H)-yl]-N-isopropylazetidine-1-carboxamide], which IC50 is on record?
A: The IC50 was ≤ 100 nM.

Q: For Cc1nn(C(C)c2cc(Cl)c(C#N)c3c2OC(C)CN(C2CN(C(=O)NC(C)C)C2)C3)c2ncnc(N)c12 (single isomer, unassigned) [Example 102, 3-[9-[1-(4-amino-3-methyl-1H-pyrazolo[3,4-d]pyrimidin-1-yl)ethyl]-7-chloro-6-cyano-2-methyl-2,3-dihydro-1,4-benzoxazepin-4(5H)-yl]-N-isopropylazetidine-1-carboxamide], which IC50 is on record?
A: The IC50 was ≤ 100 nM.

Q: With Cc1nn(C(C)c2cc(Cl)c(C#N)c3c2OC(C)CN(C2CN(CCO)C2)C3)c2ncnc(N)c12 (single isomer, unassigned) [Example 103, 9-[1-(4-amino-3-methyl-1H-pyrazolo[3,4-d]pyrimidin-1-yl)ethyl]-7-chloro-4-[1-(2-hydroxyethyl)azetidin-3-yl]-2-methyl-2,3,4,5-tetrahydro-1,4-benzoxazepine-6-carbonitrile] as the compound, how does the IC50 read?
A: Its IC50 is ≤ 100 nM.

Q: With Cc1nn(C(C)c2cc(Cl)c(C#N)c3c2OC(C)CN(C2CN(CCO)C2)C3)c2ncnc(N)c12 (single isomer, unassigned) [Example 104, 9-[1-(4-amino-3-methyl-1H-pyrazolo[3,4-d]pyrimidin-1-yl)ethyl]-7-chloro-4-[1-(2-hydroxyethyl)azetidin-3-yl]-2-methyl-2,3,4,5-tetrahydro-1,4-benzoxazepine-6-carbonitrile] as the compound, how does the IC50 read?
A: Its IC50 is ≤ 100 nM.
